Results published in article PMC4733634 (Journal of the American Chemical Society, 2015).
Converted amounts (≈) assume the structure as drawn.

What was measured:
[1] = test system: S. aureus quality control strain 43300 (ATCC); assay: microbe, parasite or virus in culture; format: cell-based; conditions: Staphylococcus aureus, ATCC43300|MRSA, 18 h, read-out: MIC wild-type S.aureus
[2] = test system: lab generated F98Y mutant strain; assay: Minimum inhibitory concentration, micro-dilution broth assay, F98Y mutant strain; format: cell-based, S. aureus; conditions: Staphylococcus aureus, 18 h, read-out: MIC Sa(F98Y)

## COc1cc(Cc2cnc(N)nc2N)cc(OC)c1OC [TMP, trimethoprim]
[1]
  MIC: 0.312 µg/mL (≈ 1.08 µM)
[2]
  MIC: 10 µg/mL (≈ 34.4 µM)
